Measured values taken from ChEMBL document CHEMBL3526147, “Tissue distribution and characterization of drug-related material in rats and dogs after repeated oral administration of casopitant” (Drug Metab Dispos, 2011).

How the values were obtained:
Design in all cases: dosed compound name [14C]Casopitant, route oral
Conditions in all cases: in vivo
[1] = Drug level in beagle dog blood assessed as free base level at 40 mg/kg/day, po administered as single dose measured after 24 hrs on day 1; assay type: ADME, organism-based, Canis lupus familiaris
[2] = Drug level in beagle dog blood assessed as free base level at 40 mg/kg/day, po administered as repeat dose measured after 24 hrs on day 14; assay type: ADME, organism-based, Canis lupus familiaris
[3] = Drug level in beagle dog blood assessed as free base level at 40 mg/kg/day, po administered as repeat dose measured after 24 hrs on day 34; assay type: ADME, organism-based, Canis lupus familiaris
[4] = Drug level in beagle dog myocardium assessed as free base level at 40 mg/kg/day, po administered as repeat dose measured after 24 hrs on day 14; assay type: ADME, organism-based, Canis lupus familiaris
[5] = Drug level in beagle dog myocardium assessed as free base level at 40 mg/kg/day, po administered as repeat dose measured after 24 hrs on day 34; assay type: ADME, organism-based, Canis lupus familiaris
[6] = Drug level in beagle dog lung assessed as free base level at 40 mg/kg/day, po administered as repeat dose measured after 24 hrs on day 14; assay type: ADME, organism-based, Canis lupus familiaris
[7] = Drug level in beagle dog lung assessed as free base level at 40 mg/kg/day, po administered as repeat dose measured after 24 hrs on day 34; assay type: ADME, organism-based, Canis lupus familiaris
[8] = Drug level in beagle dog kidney assessed as free base level at 40 mg/kg/day, po administered as repeat dose measured after 24 hrs on day 14; assay type: ADME, organism-based, Canis lupus familiaris
[9] = Drug level in beagle dog kidney assessed as free base level at 40 mg/kg/day, po administered as repeat dose measured after 24 hrs on day 34; assay type: ADME, organism-based, Canis lupus familiaris
Liver [10] = experiment: Drug level in beagle dog liver assessed as free base level at 40 mg/kg/day, po administered as repeat dose measured after 24 hrs on day 14; assay type: ADME, organism-based, Canis lupus familiaris
Liver [11] = experiment: Drug level in beagle dog liver assessed as free base level at 40 mg/kg/day, po administered as repeat dose measured after 24 hrs on day 34; assay type: ADME, organism-based, Canis lupus familiaris
[12] = Drug level in beagle dog skeletal muscle assessed as free base level at 40 mg/kg/day, po administered as repeat dose measured after 24 hrs on day 14; assay type: ADME, organism-based, Canis lupus familiaris, Muscle tissue
[13] = Drug level in beagle dog skeletal muscle assessed as free base level at 40 mg/kg/day, po administered as repeat dose measured after 24 hrs on day 34; assay type: ADME, organism-based, Canis lupus familiaris, Muscle tissue
Liver [14] = experiment: Drug level in Sprague-Dawley rat liver assessed as free base level at 60 mg/kg/day, po administered as repeat dose measured after 24 hrs on day 40; assay type: ADME, organism-based
[15] = Drug level in Sprague-Dawley rat skeletal muscle assessed as free base level at 60 mg/kg/day, po administered as single dose measured after 24 hrs on day 1; assay type: ADME, organism-based, Muscle tissue
[16] = Drug level in Sprague-Dawley rat skeletal muscle assessed as free base level at 60 mg/kg/day, po administered as repeat dose measured after 24 hrs on day 20; assay type: ADME, organism-based, Muscle tissue
[17] = Drug level in Sprague-Dawley rat skeletal muscle assessed as free base level at 60 mg/kg/day, po administered as repeat dose measured after 24 hrs on day 27; assay type: ADME, organism-based, Muscle tissue
[18] = Drug level in Sprague-Dawley rat skeletal muscle assessed as free base level at 60 mg/kg/day, po administered as repeat dose measured after 24 hrs on day 40; assay type: ADME, organism-based, Muscle tissue
Plasma [19] = experiment: Drug level in beagle dog plasma assessed as free base level at 40 mg/kg/day, po administered as single dose measured after 2 hrs on day 1; assay type: ADME, organism-based, Canis lupus familiaris
Plasma [20] = experiment: Drug level in beagle dog plasma assessed as free base level at 40 mg/kg/day, po administered as repeat dose measured after 2 hrs on day 14; assay type: ADME, organism-based, Canis lupus familiaris
Plasma [21] = experiment: Drug level in beagle dog plasma assessed as free base level at 40 mg/kg/day, po administered as single dose measured after 24 hrs on day 1; assay type: ADME, organism-based, Canis lupus familiaris
Plasma [22] = experiment: Drug level in beagle dog plasma assessed as free base level at 40 mg/kg/day, po administered as repeat dose measured after 24 hrs on day 14; assay type: ADME, organism-based, Canis lupus familiaris
Plasma [23] = experiment: Drug level in beagle dog plasma assessed as free base level at 40 mg/kg/day, po administered as repeat dose measured after 24 hrs on day 34; assay type: ADME, organism-based, Canis lupus familiaris
[24] = Drug level in beagle dog blood assessed as free base level at 40 mg/kg/day, po administered as single dose measured after 2 hrs on day 1; assay type: ADME, organism-based, Canis lupus familiaris
[25] = Drug level in beagle dog blood assessed as free base level at 40 mg/kg/day, po administered as repeat dose measured after 2 hrs on day 14; assay type: ADME, organism-based, Canis lupus familiaris
Liver [26] = experiment: Drug level in Sprague-Dawley rat liver assessed as free base level at 60 mg/kg/day, po administered as single dose measured after 24 hrs on day 1; assay type: ADME, organism-based
Kidney [27] = experiment: Drug level in Sprague-Dawley rat kidney assessed as free base level at 60 mg/kg/day, po administered as repeat dose measured after 24 hrs on day 40; assay type: ADME, organism-based
Kidney [28] = experiment: Drug level in Sprague-Dawley rat kidney assessed as free base level at 60 mg/kg/day, po administered as repeat dose measured after 24 hrs on day 27; assay type: ADME, organism-based
Kidney [29] = experiment: Drug level in Sprague-Dawley rat kidney assessed as free base level at 60 mg/kg/day, po administered as repeat dose measured after 24 hrs on day 20; assay type: ADME, organism-based
Kidney [30] = experiment: Drug level in Sprague-Dawley rat kidney assessed as free base level at 60 mg/kg/day, po administered as single dose measured after 24 hrs on day 1; assay type: ADME, organism-based
Lung [31] = experiment: Drug level in Sprague-Dawley rat lung assessed as free base level at 60 mg/kg/day, po administered as repeat dose measured after 24 hrs on day 40; assay type: ADME, organism-based
Lung [32] = experiment: Drug level in Sprague-Dawley rat lung assessed as free base level at 60 mg/kg/day, po administered as repeat dose measured after 24 hrs on day 27; assay type: ADME, organism-based
Lung [33] = experiment: Drug level in Sprague-Dawley rat lung assessed as free base level at 60 mg/kg/day, po administered as repeat dose measured after 24 hrs on day 20; assay type: ADME, organism-based
Lung [34] = experiment: Drug level in Sprague-Dawley rat lung assessed as free base level at 60 mg/kg/day, po administered as single dose measured after 24 hrs on day 1; assay type: ADME, organism-based
[35] = Drug level in Sprague-Dawley rat myocardium assessed as free base level at 60 mg/kg/day, po administered as repeat dose measured after 24 hrs on day 40; assay type: ADME, organism-based
[36] = Drug level in Sprague-Dawley rat myocardium assessed as free base level at 60 mg/kg/day, po administered as repeat dose measured after 24 hrs on day 27; assay type: ADME, organism-based
[37] = Drug level in Sprague-Dawley rat myocardium assessed as free base level at 60 mg/kg/day, po administered as repeat dose measured after 24 hrs on day 20; assay type: ADME, organism-based
[38] = Drug level in Sprague-Dawley rat myocardium assessed as free base level at 60 mg/kg/day, po administered as single dose measured after 24 hrs on day 1; assay type: ADME, organism-based
Blood [39] = experiment: Drug level in Sprague-Dawley rat blood assessed as free base level at 60 mg/kg/day, po administered as repeat dose measured after 24 hrs on day 40; assay type: ADME, organism-based
Blood [40] = experiment: Drug level in Sprague-Dawley rat blood assessed as free base level at 60 mg/kg/day, po administered as repeat dose measured after 24 hrs on day 27; assay type: ADME, organism-based
Blood [41] = experiment: Drug level in Sprague-Dawley rat blood assessed as free base level at 60 mg/kg/day, po administered as repeat dose measured after 24 hrs on day 20; assay type: ADME, organism-based
Blood [42] = experiment: Drug level in Sprague-Dawley rat blood assessed as free base level at 60 mg/kg/day, po administered as single dose measured after 24 hrs on day 1; assay type: ADME, organism-based
Liver [43] = experiment: Drug level in Sprague-Dawley rat liver assessed as free base level at 60 mg/kg/day, po administered as repeat dose measured after 24 hrs on day 20; assay type: ADME, organism-based
Plasma [44] = experiment: Drug level in Sprague-Dawley rat plasma assessed as free base level at 60 mg/kg/day, po administered as single dose measured after 2 hrs on day 1; assay type: ADME, organism-based
Plasma [45] = experiment: Drug level in Sprague-Dawley rat plasma assessed as free base level at 60 mg/kg/day, po administered as single dose measured after 2 hrs on day 20; assay type: ADME, organism-based
Plasma [46] = experiment: Drug level in Sprague-Dawley rat plasma assessed as free base level at 60 mg/kg/day, po administered as repeat dose measured after 24 hrs on day 40; assay type: ADME, organism-based
Plasma [47] = experiment: Drug level in Sprague-Dawley rat plasma assessed as free base level at 60 mg/kg/day, po administered as repeat dose measured after 24 hrs on day 27; assay type: ADME, organism-based
Plasma [48] = experiment: Drug level in Sprague-Dawley rat plasma assessed as free base level at 60 mg/kg/day, po administered as repeat dose measured after 24 hrs on day 20; assay type: ADME, organism-based
Plasma [49] = experiment: Drug level in Sprague-Dawley rat plasma assessed as free base level at 60 mg/kg/day, po administered as single dose measured after 24 hrs on day 1; assay type: ADME, organism-based
Liver [50] = experiment: Drug level in Sprague-Dawley rat liver assessed as free base level at 60 mg/kg/day, po administered as repeat dose measured after 24 hrs on day 27; assay type: ADME, organism-based

CC(=O)N1CCN([C@H]2CCN([14C](=O)N(C)[C@H](C)c3cc(C(F)(F)F)cc(C(F)(F)F)c3)[C@@H](c3ccc(F)cc3C)C2)CC1.CS(=O)(=O)O
Radiolabel recovery [1]: 9.4 ugequiv/g
Radiolabel recovery [2]: 35.3 ugequiv/g
Radiolabel recovery [3]: 9.95 ugequiv/g
Radiolabel recovery [4]: 243 ugequiv/g
Radiolabel recovery [5]: 96.2 ugequiv/g
Radiolabel recovery [6]: 905 ugequiv/g
Radiolabel recovery [7]: 345 ugequiv/g
Radiolabel recovery [8]: 308 ugequiv/g
Radiolabel recovery [9]: 102 ugequiv/g
Radiolabel recovery (Liver [10]): 1050 ugequiv/g
Radiolabel recovery (Liver [11]): 612 ugequiv/g
Radiolabel recovery [12]: 99.2 ugequiv/g
Radiolabel recovery [13]: 21.3 ugequiv/g
Radiolabel recovery (Liver [14]): 90.4 ugequiv/g
Radiolabel recovery [15]: 18.3 ugequiv/g
Radiolabel recovery [16]: 28.1 ugequiv/g
Radiolabel recovery [17]: 10.7 ugequiv/g
Radiolabel recovery [18]: 7.74 ugequiv/g
Radiolabel recovery (Plasma [19]): 20.8 ugequiv/g
Radiolabel recovery (Plasma [20]): 69.5 ugequiv/g
Radiolabel recovery (Plasma [21]): 9.68 ugequiv/g
Radiolabel recovery (Plasma [22]): 49.2 ugequiv/g
Radiolabel recovery (Plasma [23]): 11.6 ugequiv/g
Radiolabel recovery [24]: 11.3 ugequiv/g
Radiolabel recovery [25]: 47.4 ugequiv/g
Radiolabel recovery (Liver [26]): 121 ugequiv/g
Radiolabel recovery (Kidney [27]): 39.2 ugequiv/g
Radiolabel recovery (Kidney [28]): 64.6 ugequiv/g
Radiolabel recovery (Kidney [29]): 256 ugequiv/g
Radiolabel recovery (Kidney [30]): 59.1 ugequiv/g
Radiolabel recovery (Lung [31]): 96.8 ugequiv/g
Radiolabel recovery (Lung [32]): 136 ugequiv/g
Radiolabel recovery (Lung [33]): 405 ugequiv/g
Radiolabel recovery (Lung [34]): 135 ugequiv/g
Radiolabel recovery [35]: 26.7 ugequiv/g
Radiolabel recovery [36]: 32.9 ugequiv/g
Radiolabel recovery [37]: 79.6 ugequiv/g
Radiolabel recovery [38]: 34.6 ugequiv/g
Radiolabel recovery (Blood [39]): 3.63 ugequiv/g
Radiolabel recovery (Blood [40]): 7.67 ugequiv/g
Radiolabel recovery (Blood [41]): 14.5 ugequiv/g
Radiolabel recovery (Blood [42]): 5.6 ugequiv/g
Radiolabel recovery (Liver [43]): 545 ugequiv/g
Radiolabel recovery (Plasma [44]): 6.06 ugequiv/g
Radiolabel recovery (Plasma [45]): 18.5 ugequiv/g
Radiolabel recovery (Plasma [46]): 0.246 ugequiv/g
Radiolabel recovery (Plasma [47]): 1.92 ugequiv/g
Radiolabel recovery (Plasma [48]): 12.4 ugequiv/g
Radiolabel recovery (Plasma [49]): 5.54 ugequiv/g
Radiolabel recovery (Liver [50]): 240 ugequiv/g
